42 molecules from publication PMC9250534, “Synthesis and direct assay of large macrocycle diversities by combinatorial late-stage modification at picomole scale” (Nature Communications, 2022) can be followed below.

The experiment concerns the target MDM2 (Homo sapiens, UniProt Q00987). Put plainly: MDM2 binding screen of Libraries 3 and 4: displacement of fluorescent probe F-M8 at 750 nM macrocycle. In a few lines:
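Cyclic peptide scaffolds were acylated in DMSO with carboxylic acids (20 equiv.), HBTU and DABCO for 6 h at room temperature. Reactions were quenched overnight in 100 mM Tris-Cl pH 7.4, 0.01% Tween20. The fluorescein conjugate was also competed with nutlin-3a.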

[1] abbreviates: Panel b, Library 3: 63 scaffolds combinatorially acylated with 15 carboxylic acids at 30 picomole scale, displacement of fluorescent peptide probe, macrocycle 750 nM.
Where [2] appears, read: Panel c, Library 4: best nine scaffolds and 15 additional carboxylic acids, displacement of fluorescent probe.

Chain of MDM2 (Q00987 whole entry): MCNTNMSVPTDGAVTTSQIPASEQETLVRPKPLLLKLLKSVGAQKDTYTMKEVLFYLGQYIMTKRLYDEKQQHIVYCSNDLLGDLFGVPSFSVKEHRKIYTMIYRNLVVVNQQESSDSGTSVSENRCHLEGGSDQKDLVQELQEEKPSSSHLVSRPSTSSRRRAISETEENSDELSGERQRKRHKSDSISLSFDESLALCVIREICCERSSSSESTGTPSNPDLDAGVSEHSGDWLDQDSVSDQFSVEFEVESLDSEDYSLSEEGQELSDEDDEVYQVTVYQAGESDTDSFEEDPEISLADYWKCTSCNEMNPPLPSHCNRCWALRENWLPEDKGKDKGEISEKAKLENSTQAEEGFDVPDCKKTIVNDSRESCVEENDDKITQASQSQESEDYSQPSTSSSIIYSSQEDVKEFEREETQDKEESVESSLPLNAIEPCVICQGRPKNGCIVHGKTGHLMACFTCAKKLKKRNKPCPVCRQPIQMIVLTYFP

On to `O=C(CCS(=O)(=O)c1ccccc1)NC[C@@H]1NC(=O)[C@H]2CCCN(C2)C(=O)CCSSCCNC(=O)[C@H](Cc2c[nH]c3ccccc23)NC1=O` [X-Nip-Dap-Trp + Acid 114], for which, under setting [1], the “fraction of fluorescent probe displaced” value is on record as -0.012.
On to `O=C(/C=C/c1ccc2ccccc2c1)NCCN1CC(=O)N[C@@H](Cc2ccc3ccccc3c2)C(=O)NCCSSCCC(=O)N2CCO[C@@H](C2)C1=O` [X-Cop-N-Aeg-2-Nal + Acid 112], for which the “fraction of fluorescent probe displaced” value under setting [1] was found to be 0.035.
As for `Cn1cc(C[C@@H]2NC(=O)CN(CCNC(=O)c3ccc4ccccc4c3)C(=O)C3(CC3)CNC(=O)CCSSCCNC2=O)c2ccccc21` [X-Amcp-N-Aeg-Me-Trp + Acid 107], under setting [1], the “fraction of fluorescent probe displaced” value is -0.002.
`O=C(CCS(=O)(=O)c1ccccc1)NCCN1CC(=O)N[C@@H](Cc2c[nH]c3ccccc23)C(=O)NCCSSCCC(=O)NCC2(CC2)C1=O` [X-Amcp-N-Aeg-Trp + Acid 114]: the “fraction of fluorescent probe displaced” value under setting [1] turned out to be 0.021.
On to `CC(Oc1cccc(Cl)c1)C(=O)NCCN1CC(=O)N[C@@H](Cc2cccc3ccccc23)C(=O)NCCSSCCC(=O)N2CCO[C@@H](C2)C1=O` (stereo partly drawn) [X-Cop-N-Aeg-1-NaI + Acid 113], for which, under setting [1], the “fraction of fluorescent probe displaced” value was 0.008.
In the case of `O=C(O)/C=C/c1ccc(F)cc1` [Acid 116], the “fraction of fluorescent probe displaced” value under setting [2] was determined as 0.036.
`CN1C(=O)[C@H](CNC(=O)/C=C/c2ccncc2)NC(=O)[C@H]2CCCN(C2)C(=O)CCSSCCNC(=O)[C@@H]1Cc1c[nH]c2ccccc12` [X-Nip-Dap-NMe-Trp + Acid 106]: the “fraction of fluorescent probe displaced” value under setting [1] is reported as -0.021.
In the case of `Cn1cc(CC2NC(=O)C(CNC(=O)C3CC3c3ccccc3)NC(=O)C3(CC3)CNC(=O)CCSSCCNC2=O)c2ccccc21` [X-Amcp-D-Dap-Me-Trp + Acid 105], the “fraction of fluorescent probe displaced” value under setting [1] is reported as -0.002.
On the same count and under the same terms, for `O=C1CCSSCCNC(=O)[C@H](Cc2ccc3ccccc3c2)NC(=O)[C@H](CNC(=O)c2ccc3ccccc3c2)NC(=O)C2(CC2)CN1` [X-Amcp-Dap-2-Nal + Acid 107] the value was 0.031; for `O=C(NC[C@@H]1NC(=O)[C@H]2CCCN(C2)C(=O)CCSSCCNC(=O)[C@@H](Cc2c[nH]c3ccccc23)NC1=O)c1ccc2ccccc2c1` [X-Nip-Dap-D-Trp + Acid 107], 0.044; for `O=C1CCSSCCNC(=O)[C@H](Cc2c[nH]c3cc(Cl)ccc23)NC(=O)CN(CCNC(=O)c2cccc(Oc3ccccc3)c2)C(=O)C2(CC2)CN1` [X-Amcp-N-Aeg-Cl-Trp + Acid 111], -0.00533.
Take `O=C(/C=C/c1ccc2ccccc2c1)NCCN1CC(=O)N[C@@H](Cc2c[nH]c3cc(Cl)ccc23)C(=O)NCCSSCCC(=O)N2CCC[C@@H](C2)C1=O` [X-Nip-N-Aeg-Cl-Trp + Acid 112]: the “fraction of fluorescent probe displaced” value under setting [1] came to 0.00133.
On to `O=C(/C=C/c1ccncc1)NC[C@H]1NC(=O)[C@H]2CCCN(C2)C(=O)CCSSCCNC(=O)[C@H](Cc2c[nH]c3ccccc23)NC1=O` [X-Nip-D-Dap-Trp + Acid 106], for which, under setting [1], the “fraction of fluorescent probe displaced” value is on record as -0.002.
`CN1C(=O)[C@H](CNC(=O)c2cccc(Oc3ccccc3)c2)NC(=O)[C@H]2CCCN(C2)C(=O)CCSSCCNC(=O)[C@@H]1Cc1c[nH]c2ccccc12` [X-Nip-Dap-NMe-Trp + Acid 111]: the “fraction of fluorescent probe displaced” value under setting [1] is on record as -0.019.
Same read-out and setting: for `O=C1CN(CCNC(=O)c2ccc(Cl)cc2)C(=O)C2CN(CCO2)C(=O)CCSSCCNC(=O)C(Cc2cccc3ccccc23)N1` (stereo not drawn) [X-Cop-N-Aeg-1-NaI + Acid 25] the value was 0.008.
Turning to `O=C(NC[C@@H]1NC(=O)[C@H]2CCCN(C2)C(=O)CCSSCCNC(=O)[C@H](Cc2c[nH]c3ccccc23)NC1=O)c1ccc(Cl)s1` [X-Nip-Dap-Trp + Acid 14], the “fraction of fluorescent probe displaced” value under setting [1] amounted to 0.208.
Same read-out and setting: for `Cn1cc(C[C@@H]2NC(=O)CN(CCNC(=O)c3cccc(Oc4ccccc4)c3)C(=O)[C@@H]3CN(CCO3)C(=O)CCSSCCNC2=O)c2ccccc21` [X-Cop-N-Aeg-Me-Trp + Acid 111] the value was -0.00533.
Turning to `CN1C(=O)CN(CCNC(=O)/C=C/c2ccc3ccccc3c2)C(=O)[C@@H]2CN(CCO2)C(=O)CCSSCCNC(=O)[C@@H]1Cc1c[nH]c2ccccc12` [X-Cop-N-Aeg-NMe-Trp + Acid 112], under setting [1], the “fraction of fluorescent probe displaced” value stood at 0.015.
Still for that read-out and setting: for `Cn1cc(C[C@@H]2NC(=O)[C@@H](CNC(=O)C3COc4ccccc4O3)NC(=O)[C@H]3CCCN(C3)C(=O)CCSSCCNC2=O)c2ccccc21` (stereo partly drawn) [X-Nip-D-Dap-Me-Trp + Acid 115] the value was -0.012.
For the molecule `O=C1CCSSCCNC(=O)[C@H](Cc2c[nH]c3cc(Cl)ccc23)NC(=O)[C@@H](CNC(=O)c2ccc(Cl)s2)NC(=O)C2(CC2)CN1` [X-Amcp-D-Dap-Cl-Trp + Acid 14], the “fraction of fluorescent probe displaced” value under setting [1] is reported as 0.008.
Consider `O=C(CCS(=O)(=O)c1ccccc1)NCCN1CC(=O)N[C@@H](Cc2c[nH]c3ccccc23)C(=O)NCCSSCCC(=O)N2CCC[C@@H](C2)C1=O` [X-Nip-N-Aeg-Trp + Acid 114], for which the “fraction of fluorescent probe displaced” value under setting [1] stood at 0.035.
For the molecule `O=C1CN(CCNC(=O)c2cccc(Oc3ccccc3)c2)C(=O)[C@H]2CCCN(C2)C(=O)CCSSCCNC(=O)[C@H](Cc2cccc3ccccc23)N1` [X-Nip-N-Aeg-1-NaI + Acid 111], under setting [1], the “fraction of fluorescent probe displaced” value is recorded as 0.035.
For the molecule `O=C(O)C1CC1c1ccccc1` (stereo not drawn) [Acid 105], the “fraction of fluorescent probe displaced” value under setting [1] is on record as -0.00844.
In the case of `Cn1cc(C[C@@H]2NC(=O)CN(CCNC(=O)CCS(=O)(=O)c3ccccc3)C(=O)[C@@H]3CN(CCO3)C(=O)CCSSCCNC2=O)c2ccccc21` [X-Cop-N-Aeg-Me-Trp + Acid 114], the “fraction of fluorescent probe displaced” value under setting [1] is -0.012.
In the case of `O=C(/C=C/c1cccc(Cl)c1)NC[C@@H]1NC(=O)[C@H]2CCCN(C2)C(=O)CCSSCCNC(=O)[C@H](Cc2c[nH]c3cc(Cl)ccc23)NC1=O` [X-Nip-Dap-Cl-Trp + Acid 121], the “fraction of fluorescent probe displaced” value under setting [2] is reported as 0.207.
Turning to `O=C(/C=C/c1ccc(Cl)cc1)NC[C@@H]1NC(=O)C2(CC2)CNC(=O)CCSSCCNC(=O)[C@H](Cc2c[nH]c3ccccc23)NC1=O` [X-Amcp-Dap-Trp + Acid 108], the “fraction of fluorescent probe displaced” value under setting [1] was 0.068.
The same measure, in the same setting: for `CN1C(=O)CN(CCNC(=O)c2ccc(Cl)cc2)C(=O)C2CN(CCO2)C(=O)CCSSCCNC(=O)C1Cc1c[nH]c2ccccc12` (stereo not drawn) [X-Cop-N-Aeg-NMe-Trp + Acid 25] the value was 0.021.
With `CC(=Cc1ccccc1)C(=O)NCC1NC(=O)C2CCCN(C2)C(=O)CCSSCCNC(=O)C(Cc2cccc3ccccc23)NC1=O` (stereo not drawn) [X-Nip-Dap-1-NaI + Acid 123], under setting [2], the “fraction of fluorescent probe displaced” value is on record as -0.013.
Regarding `O=C(/C=C/c1ccc(Cl)cc1)NC[C@@H]1NC(=O)[C@H]2CCCN(C2)C(=O)CCSSCCNC(=O)[C@H](Cc2c[nH]c3ccccc23)NC1=O` [X-Nip-Dap-Trp + Acid 108], under setting [1], the “fraction of fluorescent probe displaced” value worked out at 0.421.
On to `CN1C(=O)[C@H](CNC(=O)c2ccc(Cl)cc2)NC(=O)[C@H]2CCCN(C2)C(=O)CCSSCCNC(=O)[C@@H]1Cc1c[nH]c2ccccc12` [X-Nip-Dap-NMe-Trp + Acid 25], for which, under setting [1], the “fraction of fluorescent probe displaced” value worked out at 0.00133.
Turning to `O=C1CN(CCNC(=O)c2ccc(Cl)s2)C(=O)[C@@H]2CN(CCO2)C(=O)CCSSCCNC(=O)[C@H](Cc2c[nH]c3cc(Cl)ccc23)N1` [X-Cop-N-Aeg-Cl-Trp + Acid 14], under setting [1], the “fraction of fluorescent probe displaced” value is recorded as -0.00533.
`O=C1NC(CNC(=O)C2COc3ccccc3O2)C(=O)NC(Cc2c[nH]c3ccccc23)C(=O)NCCSSCCC(=O)N2CCCC1C2` (mixture of isomers) [X-Nip-D-Dap-Trp + Acid 115]: the “fraction of fluorescent probe displaced” value under setting [1] was 0.00133.
In the case of `O=C(NC[C@@H]1NC(=O)[C@H]2CCCN(C2)C(=O)CCSSCCNC(=O)[C@H](Cc2cccc3ccccc23)NC1=O)c1ccc2ccccc2c1` [X-Nip-Dap-1-NaI + Acid 107], under setting [1], the “fraction of fluorescent probe displaced” value is 0.056.
For `O=C(O)/C=C/c1ccc(OCc2ccccc2)cc1` [Acid 110], the “fraction of fluorescent probe displaced” value under setting [1] came to 0.035.
On to `O=C1CCSSCCNC(=O)[C@H](Cc2c[nH]c3ccccc23)NC(=O)[C@H](CNC(=O)c2cnc3ccccc3n2)NC(=O)C2(CC2)CN1` [X-Amcp-Dap-Trp + Acid 130], for which, under setting [2], the “fraction of fluorescent probe displaced” value worked out at 0.0035.
For the molecule `O=C1CN(CCNC(=O)c2ccc3ccccc3c2)C(=O)[C@@H]2CN(CCO2)C(=O)CCSSCCNC(=O)[C@H](Cc2c[nH]c3cc(Cl)ccc23)N1` [X-Cop-N-Aeg-Cl-Trp + Acid 107], the “fraction of fluorescent probe displaced” value under setting [1] was 0.00455.
On the same count and under the same terms, for `CN1C(=O)[C@@H](CNC(=O)CCS(=O)(=O)c2ccccc2)NC(=O)[C@H]2CCCN(C2)C(=O)CCSSCCNC(=O)[C@@H]1Cc1c[nH]c2ccccc12` [X-Nip-D-Dap-NMe-Trp + Acid 114] the value was 0.008; for `O=C1CCSSCCNC(=O)[C@H](Cc2cccc3ccccc23)NC(=O)[C@@H](CNC(=O)c2ccc3ccccc3c2)NC(=O)C2(CC2)CN1` [X-Amcp-D-Dap-1-NaI + Acid 107], -0.00844.
Same read-out and setting: for `O=C(/C=C/c1ccc2ccccc2c1)NC[C@@H]1NC(=O)[C@@H]2CN(CCO2)C(=O)CCSSCCNC(=O)[C@@H](Cc2c[nH]c3ccccc23)NC1=O` [X-Cop-Dap-D-Trp + Acid 112] the value was 0.028; for `Cn1cc(C[C@@H]2NC(=O)CN(CCNC(=O)c3ccc(Cl)cc3)C(=O)C3(CC3)CNC(=O)CCSSCCNC2=O)c2ccccc21` [X-Amcp-N-Aeg-Me-Trp + Acid 25], -0.012.
On the same count and under the same terms, for `O=C(/C=C/c1ccc2ccccc2c1)NC[C@H]1NC(=O)C2(CC2)CNC(=O)CCSSCCNC(=O)[C@H](Cc2c[nH]c3ccccc23)NC1=O` [X-Amcp-D-Dap-Trp + Acid 112] the value was -0.00533; for `O=C(/C=C/c1ccncc1)NC[C@@H]1NC(=O)C2(CC2)CNC(=O)CCSSCCNC(=O)[C@H](Cc2ccc3ccccc3c2)NC1=O` [X-Amcp-Dap-2-Nal + Acid 106], -0.002.
